Reference: ChEMBL document CHEMBL4680273, “Teixobactin: A Paving Stone toward a New Class of Antibiotics?” (2020)
≈ marks a conversion by molar mass, not a printed value.

Tests used:
Assay type in all cases: functional
[1] = system: Staphylococcus aureus; assay: Antibacterial activity against Staphylococcus aureus ATCC 29213 incubated for 24 hrs by CLSI-based broth microdilution method
[2] = system: Staphylococcus aureus; assay: Antibacterial activity against Staphylococcus aureus ATCC 29213
[3] = system: Bacillus subtilis; assay: Antibacterial activity against Bacillus subtilis ATCC 6051 incubated for 16 hrs by UV/Visible absorbance method
[4] = system: Staphylococcus aureus; assay: Antibacterial activity against methicillin- resistant Staphylococcus aureus SA86
[5] = system: Staphylococcus aureus; assay: Antibacterial activity against methicillin resistant Staphylococcus aureus ATCC 33591 incubated for 24 hrs
[6] = system: Staphylococcus aureus; assay: Antibacterial activity against Staphylococcus aureus ATCC 29213 by CLSI-based broth microdilution method
[7] = system: Staphylococcus aureus; assay: Antibacterial activity against methicillin resistant Staphylococcus aureus
[8] = system: Bacillus subtilis; assay: Antibacterial activity against Bacillus subtilis 168 incubated for 24 hrs
[9] = system: Bacillus subtilis; assay: Antibacterial activity against Bacillus subtilis ATCC 6051 incubated for 24 hrs by CLSI based broth microdilution method

Row | Structure (SMILES) | MIC [2] | MIC [5] | MIC [8] | further results
1 | CC[C@H](C)[C@H](NC(=O)[C@@H](Cc1ccccc1)NC(=O)c1ccccc1)C(=O)N[C@@H](CO)C(=O)N[C@H](CCC(N)=O)C(=O)N[C@@H](C(=O)N[C@H](C(=O)N[C@@H](CO)C(=O)N[C@H]1C(=O)N[C@@H](C)C(=O)N[C@@H](CCCNC(=N)N)C(=O)N[C@@H]([C@@H](C)CC)C(=O)O[C@H]1C)[C@@H](C)CC)[C@@H](C)CC | – | – | – | MIC [1]: 8 mg/L (≈ 5.99 µM)
2 | CC[C@H](C)[C@H](NC(=O)[C@@H](Cc1ccccc1)NC)C(=O)N[C@@H](CO)C(=O)N[C@H](CCC(N)=O)C(=O)N[C@@H](C(=O)N[C@H](C(=O)N[C@@H](CO)C(=O)N[C@H]1C(=O)N[C@@H](CCCCN)C(=O)N[C@@H](CCCNC(=N)N)C(=O)N[C@@H]([C@@H](C)CC)C(=O)O[C@H]1C)[C@@H](C)CC)[C@@H](C)CC | 6 mg/L (≈ 4.61 µM) | – | – | MIC [3]: 1 mg/L (≈ 0.768 µM)
3 | CC[C@H](C)[C@H](NC(=O)[C@H](NC(=O)[C@@H](CCC(N)=O)NC(=O)[C@H](CO)NC(=O)[C@@H](NC(=O)[C@@H](Cc1ccccc1)NC)C(C)C)[C@@H](C)CC)C(=O)N[C@@H](CO)C(=O)N[C@H]1C(=O)N[C@@H](C)C(=O)NC(CCCN)C(=O)N[C@@H]([C@@H](C)CC)C(=O)O[C@H]1C (some centres not stated) | 8 mg/L (≈ 6.73 µM) | – | – | MIC [4]: 8 mg/L (≈ 6.73 µM)
4 | CC[C@H](C)[C@H](NC(=O)[C@@H](Cc1ccccc1)NC)C(=O)N[C@@H](CO)C(=O)N[C@H](CCC(N)=O)C(=O)N[C@@H](C(=O)N[C@H](C(=O)N[C@@H](C)C(=O)N[C@H]1C(=O)N[C@@H](C)C(=O)N[C@@H](CCCNC(=N)N)C(=O)N[C@@H]([C@@H](C)CC)C(=O)O[C@H]1C)[C@@H](C)CC)[C@@H](C)CC | – | 32 mg/L (≈ 26 µM) | – | MIC [6]: 32 mg/L (≈ 26 µM)
5 | CC[C@H](C)[C@H](NC(=O)[C@@H](Cc1ccccc1)NC)C(=O)N[C@@H](C)C(=O)N[C@H](CCC(N)=O)C(=O)N[C@@H](C(=O)N[C@H](C(=O)N[C@@H](CO)C(=O)N[C@H]1C(=O)N[C@@H](C)C(=O)N[C@@H](CCCCN)C(=O)N[C@@H]([C@@H](C)CC)C(=O)O[C@H]1C)[C@@H](C)CC)[C@@H](C)CC | 0.5 mg/L (≈ 0.416 µM) | – | – | MIC [7]: 1 mg/L (≈ 0.833 µM)
6 | CC[C@H](C)[C@H](NC(=O)[C@@H](N)Cc1ccccc1)C(=O)N[C@@H](CO)C(=O)N[C@H](CCC(N)=O)C(=O)N[C@@H](C(=O)N[C@H](C(=O)N[C@@H](CO)C(=O)N[C@H]1C(=O)N[C@@H](C)C(=O)N[C@@H](CCCNC(=N)N)C(=O)N[C@@H]([C@@H](C)CC)C(=O)O[C@H]1C)[C@@H](C)CC)[C@@H](C)CC | – | – | – | MIC [1]: 2 mg/L (≈ 1.63 µM)
7 | CC[C@H](C)[C@H](NC(=O)[C@@H](Cc1ccccc1)NC)C(=O)N[C@@H](CO)C(=O)N[C@H](CCC(N)=O)C(=O)N[C@@H](C(=O)N[C@H](C(=O)N[C@@H](CO)C(=O)N[C@H]1C(=O)N[C@@H](C)C(=O)NC(CN)C(=O)N[C@@H]([C@@H](C)CC)C(=O)O[C@H]1C)[C@@H](C)CC)[C@@H](C)CC (some centres not stated) | – | 4 mg/L (≈ 3.41 µM) | 0.5 mg/L (≈ 0.426 µM) | –
8 | CC[C@H](C)[C@H](NC(=O)[C@@H](Cc1ccccc1)NC)C(=O)N[C@@H](CO)C(=O)N[C@H](CCC(N)=O)C(=O)N[C@@H](C(=O)N[C@H](C(=O)N[C@@H](C)C(=O)N[C@H]1C(=O)N[C@@H](C)C(=O)N[C@@H](CCCCN)C(=O)N[C@@H]([C@@H](C)CC)C(=O)O[C@H]1C)[C@@H](C)CC)[C@@H](C)CC | 32 mg/L (≈ 26.7 µM) | – | – | MIC [7]: 32 mg/L (≈ 26.7 µM)
9 | CC[C@H](C)[C@H](NC(=O)[C@@H](Cc1ccccc1)NC)C(=O)N[C@@H](CO)C(=O)N[C@H](CCC(N)=O)C(=O)N[C@@H](C(=O)N[C@H](C(=O)N[C@@H](CO)C(=O)N[C@H]1C(=O)N[C@@H](C)C(=O)N[C@@H](CNC(=N)N)C(=O)N[C@@H]([C@@H](C)CC)C(=O)O[C@H]1C)[C@@H](C)CC)[C@@H](C)CC | – | 4 mg/L (≈ 3.29 µM) | 1 mg/L (≈ 0.822 µM) | –
10 | CC[C@H](C)[C@H](NC(=O)[C@@H](Cc1ccccc1)NC)C(=O)N[C@@H](CO)C(=O)N[C@H](CCC(N)=O)C(=O)N[C@@H](C(=O)N[C@H](C(=O)N[C@@H](CO)C(=O)N[C@H]1C(=O)N[C@@H](C)C(=O)N[C@@H](CCN)C(=O)N[C@@H]([C@@H](C)CC)C(=O)O[C@H]1C)[C@@H](C)CC)[C@@H](C)CC | – | 2 mg/L (≈ 1.68 µM) | 1 mg/L (≈ 0.841 µM) | –
11 | CC[C@H](C)[C@H](NC(=O)[C@@H](Cc1ccccc1)NC)C(=O)N[C@@H](CO)C(=O)N[C@H](CCC(N)=O)C(=O)N[C@@H](C(=O)N[C@H](C(=O)N[C@@H](CO)C(=O)N[C@H]1C(=O)N[C@@H](C)C(=O)N[C@@H](CCCCNC(=N)N)C(=O)N[C@@H]([C@@H](C)CC)C(=O)O[C@H]1C)[C@@H](C)CC)[C@@H](C)CC | – | 1 mg/L (≈ 0.795 µM) | 0.125 mg/L (≈ 0.0993 µM) | –
12 | CC[C@H](C)[C@H](NC(=O)[C@@H](Cc1ccccc1)NC)C(=O)N[C@@H](CO)C(=O)N[C@H](CCC(N)=O)C(=O)N[C@@H](C(=O)N[C@H](C(=O)N[C@@H](CCCCO)C(=O)N[C@H]1C(=O)N[C@@H](C)C(=O)N[C@@H](CCCNC(=N)N)C(=O)N[C@@H]([C@@H](C)CC)C(=O)O[C@H]1C)[C@@H](C)CC)[C@@H](C)CC | – | – | – | MIC [9]: 8 mg/L (≈ 6.22 µM); MIC [1]: 32 mg/L (≈ 24.9 µM)
